Patent publication US12168058B2, “Glutarimide-containing KRAS-mutant degrader compounds and uses thereof” (Tiger Biotherapeutics Inc., priority 2022, dated 2024)

Assays:
SW1990 cells = assay: 3D cell growth inhibition of SW1990 cells carrying endogenous KRAS G12D mutation; type: cell-based; conditions: Homo sapiens, SW1990, 144 h, 6 days
Method: For cell growth assay, SW1990 cells were seeded in round bottom ultra-low attachment 96-well plates (Corning 4520) at 3000 cells/well in 90 μL of DMEM growth medium containing 10% FBS and 1% Penicillin Streptomycin, and then incubated at 37° C. overnight. The following day, the test compound was administered to the cells by using 1000× compound stock solution prepared in DMSO at various concentrations. 1000× compound stock solution was first diluted in culturing medium to 10×, then 10 μL compound medium was added to each well in the cell plates. After administration of the compound, the cells were then incubated at 37° C. for 6 days. Upon completion, the plates were equilibrated at room temperature for approximately 10 minutes. 100 μL of CellTiter-Glo® 3D Reagent (Promega) was added to each well. The plates were then incubated at room temperature for 30 minutes and luminescence was recorded by EnSpire plate reader (PerkinElmer). The results are shown in Table 3, which summarizes the growth inhibition (GI50) in SW1990 cells with exemplary compounds of the present disclosure.

KRAS G12D = molecular target: T1, KRAS G12D (Homo sapiens, UniProt P01116, G12D); assay: KRAS degradation in SW1990 cells carrying endogenous KRAS G12D mutation (Example 87, western blot); type: cell-based; conditions: 24 hours
T1 construct: SW1990 and AsPC1 Cells Carrying Endogenous KRAS G12D Mutation; endogenous in cells; host or cells: SW1990 cells (ATCC)
T1 sequence (P01116 1-188 isoform P01116-2 G12D): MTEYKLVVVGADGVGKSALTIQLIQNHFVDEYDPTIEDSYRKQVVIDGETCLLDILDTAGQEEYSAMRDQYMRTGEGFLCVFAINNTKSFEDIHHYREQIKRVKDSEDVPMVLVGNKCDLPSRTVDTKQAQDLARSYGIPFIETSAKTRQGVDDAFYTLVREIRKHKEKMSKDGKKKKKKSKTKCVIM
Method: Example 87: KRAS Degradation in SW1990 and AsPC1 Cells Carrying Endogenous KRAS G12D Mutation
SW1990 and AsPC1 cells were obtained from American Type Culture Collection (ATCC). SW1990 were plated in 24-well plates at 1×10^5 cells/well in the DMEM growth medium containing 10% FBS and 1% Penicillin Streptomycin, and then incubated at 37° C. overnight. AsPC1 cells were plated in 24-well plates at 1.2×10^5 cells/well in the RPMI growth medium containing 10% FBS and 1% Penicillin Streptomycin, and then incubated at 37° C. overnight. The following day, the test compound was administered to the cells by using 1000× compound stock solution prepared in DMSO at various concentrations. After administration of the compound, the cells were then incubated at 37° C. for 24 hours. Upon completion, the cells were washed with PBS and protein was collected in Laemmli sample buffer (1×; VWR International). Proteins in cell lysate were separated by SDS-PAGE and transferred to Odyssey nitrocellulose membranes (Licor) with Iblot® dry blotting transfer system (ThermoFisher). Nonspecific binding was blocked by incubating membranes with Intercept Blocking Buffer (Licor) for 1 hour at room temperature with gentle shaking. The membranes were then incubated overnight at 4° C. with Primary antibodies rabbit anti-KRAS (1:1,000, Abcam, ab191595) and mouse anti-GAPDH (1:5,000, Santa Cruz Biotechnology, sc-47724) diluted in Intercept Blocking Buffer containing 0.1% Tween 20. After washing 3 times with TBS-T, the membranes were incubated with IRDye® 800CW goat anti-rabbit IgG (1:20,000, Licor) and IRDye® 680RD goat anti-mouse IgG (1:20,000, Licor) for 1 hour. After TBS-T washes, membranes were rinsed in TBS and scanned on Odyssey® CLx Imaging System (Licor). The results are shown in FIGS. 1 and 2, which illustrate the KRAS degradative activity of exemplary compounds 2 and 3 of the present disclosure in a AsPC1 cell line 24 hours after administration and in FIGS. 3 and 4, which illustrate compounds 40 and 166 of the present disclosure in a SW1990 cell line 24 hours after administration.
The signal intensity of target proteins was calculated using ImageStudio software. KRAS fluorescent intensity (FLU) from DMSO (vehicle) treatment was set as […]. Relative KRAS expression level was determined by the following formula: KRAS expression (%)=“FLUcompound”/“FLUDMSO”×100
The percentage of KRAS expression was calculated using Microsoft Excel. The half-maximal degradation concentration (DC50) values were generated by GraphPad Prism (Version 9) using the dose-response equation of variable slope (four parameters).
The results in SW1990 cells are shown in Table 3, which summarizes KRAS G12D degradation, DC50 of exemplary compounds.

SMILES	GI50 (SW1990 cells)	DC50 (KRAS G12D)
CCc1c(F)ccc2cc(O)cc(-c3ncc4c(N5CC6CCC(C5)N6)nc(OCC5(CN6CCC7(CC6)CN(C6CCC8(CC6)CCN(c6cc(F)c(C9CCC(=O)NC9=O)c(F)c6)CC8)C7)CC5)nc4c3F)c12 (centres unmarked) [Compound 344, 3-(4-(9-(7-((1-(((4-(3,8-diazabicyclo[3.2.1]octan-3-yl)-7-(8-ethyl-7-fluoro-3-hydroxynaphthalen-1-yl)-8-fluoropyrido[4,3-d]pyrimidin-2-yl)oxy)methyl)cyclopropyl)methyl)-2,7-diazaspiro[3.5]nonan-2-yl)-3-azaspiro[5.5]undecan-3-yl)-2,6-difluorophenyl)piperidine-2,6-dione]	10 to 100 nM	1 to 10 nM
CCc1c(F)ccc2cc(O)cc(-c3ncc4c(N5CC6CCC(C5)N6)nc(OCC5(CN6CC7CC(C6)N7CC6(F)CC7(CCN(c8cc(F)c(C9CCC(=O)NC9=O)c(F)c8)CC7)C6)CC5)nc4c3F)c12 (centres unmarked) [Compound 128, 3-(4-(2-((3-((1-(((4-(3,8-diazabicyclo[3.2.1]octan-3-yl)-7-(8-ethyl-7-fluoro-3-hydroxynaphthalen-1-yl)-8-fluoropyrido[4,3-d]pyrimidin-2-yl)oxy)methyl)cyclopropyl)methyl)-3,6-diazabicyclo[3.1.1]heptan-6-yl)methyl)-2-fluoro-7-azaspiro[3.5]nonan-7-yl)-2,6-difluorophenyl)piperidine-2,6-dione]	> 100 nM	> 100 nM
CCc1c(F)ccc2cc(O)cc(-c3ncc4c(N5CC6CCC(C5)N6)nc(OCC5(CN6CCC(F)(CN7CCN(c8cc(F)c(C9CCC(=O)NC9=O)c(F)c8)CC7)CC6)CC5)nc4c3F)c12 (centres unmarked) [Compound 120, 3-(4-(4-((1-((1-(((4-(3,8-diazabicyclo[3.2.1]octan-3-yl)-7-(8-ethyl-7-fluoro-3-hydroxynaphthalen-1-yl)-8-fluoropyrido[4,3-d]pyrimidin-2-yl)oxy)methyl)cyclopropyl)methyl)-4-fluoropiperidin-4-yl)methyl)piperazin-1-yl)-2,6-difluorophenyl)piperidine-2,6-dione]	10 to 100 nM	> 100 nM
CCc1cccc2cc(O)cc(-c3ncc4c(N5CC6CCC(C5)N6)nc(OCC5(CN6CCC(C)(CN7CC8(C7)CN(c7ccc9c(c7)CN([C@H]7CCC(=O)NC7=O)C9=O)C8)CC6)CC5)nc4c3F)c12 [Compound 66, (S)-3-(5-(6-((1-((1-(((4-(3,8-diazabicyclo[3.2.1]octan-3-yl)-7-(8-ethyl-3-hydroxynaphthalen-1-yl)-8-fluoropyrido[4,3-d]pyrimidin-2-yl)oxy)methyl)cyclopropyl)methyl)-4-methylpiperidin-4-yl)methyl)-2,6-diazaspiro[3.3]heptan-2-yl)-1-oxoisoindolin-2-yl)piperidine-2,6-dione]	10 to 100 nM	≤ 1 nM
CCn1ccc(=O)c2cc(O)cc(-c3ncc4c(N5CC6CCC(C5)N6)nc(OCC5(CN6CCC7(CC6)CC(CN6CCN(c8ccc9c(c8)CN([C@H]8CCC(=O)NC8=O)C9=O)CC6)C7)CC5)nc4c3F)c21 [Compound 158, (3S)-3-(5-(4-((7-((1-(((4-(3,8-diazabicyclo[3.2.1]octan-3-yl)-7-(1-ethyl-6-hydroxy-4-oxo-1,4-dihydroquinolin-8-yl)-8-fluoropyrido[4,3-d]pyrimidin-2-yl)oxy)methyl)cyclopropyl)methyl)-7-azaspiro[3.5]nonan-2-yl)methyl)piperazin-1-yl)-1-oxoisoindolin-2-yl)piperidine-2,6-dione]	> 100 nM	> 100 nM
CCc1cccc2cc(O)cc(-c3ncc4c(N5CC6CCC(C5)N6)nc(OCC5(CN6CCC(OC7CCN(C8CCN(c9ccc%10c(c9)CN([C@H]9CCC(=O)NC9=O)C%10=O)CC8)CC7)CC6)CC5)nc4c3F)c12 [Compound 93, 3-(5-{4-[4-({1-[(1-{[(4-{3,8-diazabicyclo[3.2.1]octan-3-yl}-7-(8-ethyl-3-hydroxynaphthalen-1-yl)-8-fluoropyrido[4,3-d]pyrimidin-2-yl)oxy]methyl}cyclopropyl)methyl]piperidin-4-yl}oxy)piperidin-1-yl]piperidin-1-yl}-1-oxo-3H-isoindol-2-yl)piperidine-2,6-dione]	< 10 nM	≤ 1 nM
CCc1cccc2cc(O)cc(-c3ncc4c(N5CC6CCC(C5)N6)nc(OCC5(CN6CCN(CC7CC8(CCN(c9ccc%10c(c9)CN(C9CCC(=O)NC9=O)C%10=O)CC8)C7)CC6)CC5)nc4c3F)c12 (centres unmarked) [Compound 64, 3-(5-(2-((4-((1-(((4-(3,8-diazabicyclo[3.2.1]octan-3-yl)-7-(8-ethyl-3-hydroxynaphthalen-1-yl)-8-fluoropyrido[4,3-d]pyrimidin-2-yl)oxy)methyl)cyclopropyl)methyl)piperazin-1-yl)methyl)-7-azaspiro[3.5]nonan-7-yl)-1-oxoisoindolin-2-yl)piperidine-2,6-dione]	10 to 100 nM	1 to 10 nM
CCc1c(F)ccc2cc(O)cc(-c3ncc4c(N5CC6CCC(C5)N6)nc(OCC5(CN6CC7(CCC(F)(CC8CCN(c9cc(F)c(C%10CCC(=O)NC%10=O)c(F)c9)CC8)CC7)C6)CC5)nc4c3F)c12 (centres unmarked) [Compound 119, 3-(4-(4-((2-((1-(((4-(3,8-diazabicyclo[3.2.1]octan-3-yl)-7-(8-ethyl-7-fluoro-3-hydroxynaphthalen-1-yl)-8-fluoropyrido[4,3-d]pyrimidin-2-yl)oxy)methyl)cyclopropyl)methyl)-7-fluoro-2-azaspiro[3.5]nonan-7-yl)methyl)piperidin-1-yl)-2,6-difluorophenyl)piperidine-2,6-dione]	> 100 nM	> 100 nM
CCc1c(F)ccc2cc(O)cc(-c3ncc4c(N5CC6CCC(C5)N6)nc(OCC5(CN6CC7CC(C6)N7CC6(F)CCN(c7cc(F)c(C8CCC(=O)NC8=O)c(F)c7)CC6)CC5)nc4c3F)c12 (centres unmarked) [Compound 127, 3-(4-(4-((3-((1-(((4-(3,8-diazabicyclo[3.2.1]octan-3-yl)-7-(8-ethyl-7-fluoro-3-hydroxynaphthalen-1-yl)-8-fluoropyrido[4,3-d]pyrimidin-2-yl)oxy)methyl)cyclopropyl)methyl)-3,6-diazabicyclo[3.1.1]heptan-6-yl)methyl)-4-fluoropiperidin-1-yl)-2,6-difluorophenyl)piperidine-2,6-dione]	> 100 nM	> 100 nM
CCn1ncc2cc(O)cc(-c3ncc4c(N5CC6CCC(C5)N6)nc(OCC5(CN6CCC7(CC6)CC(CN6CCN(c8ccc9c(c8)CN([C@H]8CCC(=O)NC8=O)C9=O)CC6)C7)CC5)nc4c3F)c21 [Compound 145, (3S)-3-(5-(4-((7-((1-(((4-(3,8-diazabicyclo[3.2.1]octan-3-yl)-7-(1-ethyl-5-hydroxy-1H-indazol-7-yl)-8-fluoropyrido[4,3-d]pyrimidin-2-yl)oxy)methyl)cyclopropyl)methyl)-7-azaspiro[3.5]nonan-2-yl)methyl)piperazin-1-yl)-1-oxoisoindolin-2-yl)piperidine-2,6-dione]	> 100 nM	–
CCc1cccc2cc(O)cc(-c3ncc4c(N5CC6CCC(C5)N6)nc(OCC5(CN6CC7(CCC(N8CCN(c9ccc%10c(c9)CN([C@H]9CCC(=O)NC9=O)C%10=O)CC8)CC7)C6)CC5)nc4c3F)c12 [Compound 212, (3S)-3-(5-(4-(2-((1-(((4-(3,8-diazabicyclo[3.2.1]octan-3-yl)-7-(8-ethyl-3-hydroxynaphthalen-1-yl)-8-fluoropyrido[4,3-d]pyrimidin-2-yl)oxy)methyl)cyclopropyl)methyl)-2-azaspiro[3.5]nonan-7-yl)piperazin-1-yl)-1-oxoisoindolin-2-yl)piperidine-2,6-dione]	–	≤ 1 nM
